Test results reported in ChEMBL document CHEMBL1201862, “PubChem BioAssay data set” (2004).
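Grown in 96-well plates, cells were treated for 48 hours with each compound at five concentrations. Insufficient inhibition: endpoint recorded as highest concentration tested. Abbreviation: GI50, concentration required for 50% inhibition of growth.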 The source made the active and inactive calls. Cut-off read from the data, not from the text of the source: active = GI50 up to about 1.1 µM and inactive = higher.

Legend:
Experiment in all cases: DTP human tumour cell line panel, 48 h
SR = test system: SR
TK-10 = test system: TK-10
MDA-N = test system: MDA-N
OVCAR-8 = test system: OVCAR-8
SK-MEL-2 = test system: SK-MEL-2
NCI-H226 = test system: NCI-H226
CAKI-1 = test system: CAKI-1
OVCAR-3 = test system: OVCAR-3
M14 = test system: M14
NCI-H23 = test system: NCI-H23
CCRF-CEM = test system: CCRF-CEM
HOP-92 = test system: HOP-92
SNB-19 = test system: SNB-19
A498 = test system: A498
OVCAR-5 = test system: OVCAR-5
ACHN = test system: ACHN
EKVX = test system: EKVX
K562 = test system: K562
Hs-578T = test system: Hs-578T
SNB-75 = test system: SNB-75

Measured: GI50

CC(C)c1cc(C(C)C)c(B(c2ccccc2)c2ccccc2)c(C(C)C)c1Br
inactive: SR > 100 µM | TK-10 > 100 µM | MDA-N > 100 µM | OVCAR-8 > 100 µM | SK-MEL-2 > 100 µM | NCI-H226 > 100 µM | CAKI-1 > 100 µM | OVCAR-3 > 100 µM | M14 > 100 µM | NCI-H23 > 100 µM | CCRF-CEM > 100 µM | HOP-92 > 100 µM | SNB-19 > 100 µM | A498 > 100 µM | OVCAR-5 > 100 µM | ACHN > 100 µM | EKVX > 100 µM | K562 > 100 µM | Hs-578T > 100 µM

CC(C)OP(=O)(OC(C)C)C(C(C)C)N(C)/C(N)=N\C1=NC(C(F)(F)F)(C(F)(F)F)N=C(C(C(F)(F)F)C(F)(F)F)O1 (stereo not drawn)
inactive: SR 1.9 µM | TK-10 3.61 µM | MDA-N 2.14 µM | OVCAR-8 1.99 µM | SK-MEL-2 9.44 µM | NCI-H226 2.11 µM | CAKI-1 3.12 µM | OVCAR-3 3.27 µM | M14 1.41 µM | NCI-H23 3.61 µM | SNB-19 11.9 µM | A498 5.2 µM | OVCAR-5 2.55 µM | ACHN 2.59 µM | SNB-75 2.42 µM | EKVX 3.66 µM | K562 1.76 µM | Hs-578T 4.99 µM
active: CCRF-CEM 0.664 µM

COc1ccc(CCN2CCOCC2)cc1
inactive: SR > 100 µM | TK-10 > 100 µM | MDA-N > 100 µM | SK-MEL-2 > 100 µM | NCI-H226 > 100 µM | CAKI-1 > 100 µM | OVCAR-3 41.8 µM | M14 > 100 µM | NCI-H23 > 100 µM | CCRF-CEM > 100 µM | HOP-92 > 100 µM | SNB-19 > 100 µM | A498 > 100 µM | OVCAR-5 > 100 µM | ACHN > 100 µM | EKVX > 100 µM | K562 > 100 µM | Hs-578T > 100 µM

O=C(O)c1ccc2c(c1)CC1(C2)Cc2ccccc2C1=O (stereo not drawn)
inactive: SR > 100 µM | TK-10 > 100 µM | MDA-N > 100 µM | OVCAR-8 > 100 µM | SK-MEL-2 > 100 µM | NCI-H226 > 100 µM | OVCAR-3 > 100 µM | M14 51.8 µM | NCI-H23 > 100 µM | CCRF-CEM > 100 µM | HOP-92 25.2 µM | SNB-19 > 100 µM | OVCAR-5 > 100 µM | ACHN > 100 µM | SNB-75 > 100 µM | EKVX > 100 µM | K562 > 100 µM | Hs-578T > 100 µM

Cc1cc(C)n(CN(Cn2nc(C)cc2C)c2ccccc2)n1
inactive: TK-10 46.1 µM | MDA-N 14.5 µM | OVCAR-8 20.9 µM | SK-MEL-2 19 µM | CAKI-1 20.4 µM | OVCAR-3 30.5 µM | M14 16.3 µM | NCI-H23 18.1 µM | CCRF-CEM 23.3 µM | HOP-92 33.5 µM | SNB-19 45.5 µM | A498 > 100 µM | OVCAR-5 30.1 µM | ACHN 18.4 µM | EKVX 24.7 µM | K562 15.6 µM | Hs-578T 45 µM
active: SR 0.217 µM

O=C(Nc1ccc(C(F)(F)F)cc1)NC(F)(F)F
inactive: SR > 100 µM | TK-10 35.9 µM | MDA-N > 100 µM | OVCAR-8 > 100 µM | SK-MEL-2 > 100 µM | CAKI-1 34.5 µM | M14 > 100 µM | NCI-H23 > 100 µM | CCRF-CEM > 100 µM | SNB-19 > 100 µM | A498 > 100 µM | OVCAR-5 > 100 µM | ACHN > 100 µM | SNB-75 > 100 µM | EKVX > 100 µM | K562 > 100 µM | Hs-578T > 100 µM

N#Cc1c(-c2ccc(Cl)cc2)c2c(n(C3OC(CO)C(O)C(O)C3O)c1=S)CCC2 (stereo not drawn)
inactive: SR 47 µM | TK-10 37.6 µM | MDA-N 34.5 µM | SK-MEL-2 34.5 µM | CAKI-1 30.2 µM | OVCAR-3 28 µM | M14 22.6 µM | NCI-H23 25.4 µM | CCRF-CEM 16.1 µM | HOP-92 24.3 µM | SNB-19 22 µM | OVCAR-5 41.3 µM | ACHN 33 µM | SNB-75 19.8 µM | K562 14.7 µM | Hs-578T 31.7 µM

COc1cc(COC(=O)N[C@H](C(=O)O)C(C)(C)C)c([N+](=O)[O-])cc1OC
inactive: SR > 100 µM | TK-10 > 100 µM | MDA-N > 100 µM | OVCAR-8 > 100 µM | NCI-H226 > 100 µM | OVCAR-3 > 100 µM | M14 > 100 µM | NCI-H23 > 100 µM | CCRF-CEM > 100 µM | HOP-92 > 100 µM | SNB-19 > 100 µM | A498 > 100 µM | OVCAR-5 > 100 µM | ACHN > 100 µM | SNB-75 > 100 µM | EKVX > 100 µM | K562 > 100 µM | Hs-578T > 100 µM
